Assay results reported in PubChem BioAssay (NCI).
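Tested at 5 concentrations; 48 h exposure; 96-well plates; endpoints linearly interpolated, else capped at highest concentration. TGI denotes the concentration required for complete inhibition of growth.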

Assays:
Experiment in all cases: DTP human tumour cell line panel, 48 h
IGROV1 ovarian = test system: IGROV1 ovarian
UACC-62 melanoma = test system: UACC-62 melanoma
HCT-15 colon = test system: HCT-15 colon
HS 578T breast = test system: HS 578T breast
TK-10 renal = test system: TK-10 renal
NCI/ADR-RES ovarian = test system: NCI/ADR-RES ovarian
HCT-116 colon = test system: HCT-116 colon
SNB-19 CNS = test system: SNB-19 CNS
MCF7 breast = test system: MCF7 breast
SNB-75 CNS = test system: SNB-75 CNS
NCI-H226 lung = test system: NCI-H226 lung
RXF 393 renal = test system: RXF 393 renal
HOP-62 NSCLC = test system: HOP-62 NSCLC
MDA-N = test system: MDA-N
HOP-92 NSCLC = test system: HOP-92 NSCLC
A549 NSCLC = test system: A549 NSCLC

Structure (SMILES)	TGI (IGROV1 ovarian)	TGI (UACC-62 melanoma)	TGI (HCT-15 colon)	TGI (HS 578T breast)	TGI (TK-10 renal)	TGI (NCI/ADR-RES ovarian)	TGI (HCT-116 colon)	TGI (SNB-19 CNS)	TGI (MCF7 breast)	TGI (SNB-75 CNS)	TGI (NCI-H226 lung)	TGI (RXF 393 renal)	TGI (HOP-62 NSCLC)	TGI (MDA-N)	TGI (HOP-92 NSCLC)	TGI (A549 NSCLC)
O=c1c2c3c(sc2nc2n1N=CN(c1ccc(F)cc1)C2)CCCC3	> 100 µM	> 100 µM	> 100 µM	> 100 µM	> 100 µM	> 100 µM	> 100 µM	> 100 µM	> 100 µM	> 100 µM	> 100 µM	> 100 µM	> 100 µM	> 100 µM	> 100 µM	> 100 µM
O=C(C1OC1c1cccc([N+](=O)[O-])c1)C12CC3CC(CC(C3)C1)C2 (configuration not stated)	20.2 µM	14.1 µM	14.7 µM	14.3 µM	32.7 µM	9.74 µM	4.69 µM	20.5 µM	12.8 µM	20 µM	25.9 µM	16.8 µM	24.3 µM	11.9 µM	25.3 µM	26.6 µM
COc1ccc(/C=C/C(=O)Oc2ccccc2OC)cc1	> 51.2 µM	97.9 µM	37 µM	> 89.6 µM	> 100 µM	> 68.3 µM	9.55 µM	> 100 µM	> 100 µM	> 74.1 µM	> 100 µM	99.8 µM	> 62.4 µM	> 100 µM	97.7 µM	> 100 µM
CCOC(=O)/C=C(/C(=O)OCC)n1ccc(=O)n(Cc2cnnn2CCCCOC(C)=O)c1=O	> 100 µM	> 100 µM		> 100 µM	> 100 µM	> 100 µM	> 100 µM	> 100 µM	> 100 µM	> 100 µM	> 100 µM	> 100 µM	> 100 µM	> 100 µM	45.7 µM	> 100 µM
O=C(Nc1ccc2cc3ccccc3cc2c1)c1cc2c(cc1Cl)Sc1nccn1S2(=O)=O	> 100 µM	> 100 µM	> 100 µM	> 100 µM	70.7 µM	> 100 µM	> 100 µM	> 100 µM	> 100 µM	81.2 µM	> 100 µM	> 100 µM	> 100 µM	> 100 µM	> 100 µM	> 100 µM
Cc1cc2nnc(C(N)=O)c(N)c2cc1C	> 100 µM	> 100 µM	> 100 µM	> 100 µM	> 100 µM	> 100 µM	> 100 µM	> 100 µM	> 100 µM	39.6 µM	> 100 µM		> 100 µM	> 100 µM	> 100 µM	> 100 µM
Cc1cc(NS(=O)(=O)c2ccc(Nc3c4ccccc4nc4c(C(=O)NCCO)cccc34)cc2)no1	> 100 µM	> 100 µM	> 100 µM	> 100 µM	> 100 µM	> 100 µM		> 100 µM	45.5 µM	53.9 µM			> 100 µM	> 100 µM	> 100 µM	> 100 µM
CC(=O)c1c(O)n(-c2ccc(C)cc2)c(=O)c2c(N)n[nH]c12	> 100 µM	> 100 µM	> 100 µM	> 100 µM	> 100 µM	> 100 µM	> 100 µM	> 100 µM	> 100 µM	> 100 µM	> 100 µM	> 100 µM		> 100 µM		> 100 µM
COc1cc(OC)c(C2(c3c(OC(C)C)c(=O)c3=O)SCCCS2)cc1OC	> 100 µM	> 100 µM	> 100 µM	> 100 µM	> 100 µM	> 100 µM	> 100 µM	> 100 µM	> 100 µM	> 100 µM	> 100 µM	> 100 µM	> 100 µM	> 100 µM	> 100 µM	> 100 µM
CCC(=O)Nc1ccc(NCC(=O)Nc2ccc(OC)cc2)cc1	78 µM	56.7 µM	> 100 µM	> 100 µM		85.7 µM	80.3 µM	31.3 µM	33.3 µM	34.3 µM	37.7 µM	35.2 µM	11.6 µM	> 100 µM	66.3 µM	> 100 µM
O=P1(Cc2ccccc2)c2ccccc2-c2ccccc21	19.3 µM	13.7 µM	> 100 µM	> 72 µM	36 µM	> 100 µM	50.9 µM	> 37.8 µM	> 39.3 µM	> 50.7 µM	31.2 µM	28.9 µM	> 52.6 µM	10.9 µM	6.99 µM	> 94.6 µM
Cc1cn(C2OC(CO)C(O)C2F)c(=O)[nH]c1=O (configuration not stated)	> 100 µM	> 100 µM	> 100 µM	> 100 µM	> 100 µM	> 100 µM	> 100 µM	> 100 µM	> 100 µM	> 100 µM	> 100 µM	> 100 µM	> 100 µM	> 100 µM	> 100 µM	> 100 µM
CC(C)=C[C@@H]1O[C@H](O)[C@@H]([C@H]2CC[C@@]3(C)[C@@H]4CC[C@H]5C(C)(C)C(=O)CC[C@@]56C[C@@]46CC[C@]23C)[C@@H]1O	35.4 µM	35.5 µM	36.1 µM	48.4 µM	30.1 µM	35.6 µM	28.5 µM	39.1 µM	25 µM	32.5 µM	24.6 µM	27.8 µM	62.2 µM	31.3 µM	32 µM	28.7 µM
Cc1cc(N(CCC#N)CCC#N)ccc1/C(N=Nc1ccc([N+](=O)[O-])cc1)=N\NC(=O)c1ccccc1	> 100 µM	> 100 µM	> 100 µM	64.5 µM	> 100 µM	> 100 µM	> 100 µM	> 100 µM	> 100 µM	> 100 µM	> 100 µM	> 100 µM	> 100 µM	> 100 µM		> 100 µM
COC(=O)C1(O)C(c2ccccc2)NC2(C)CCCC21 (configuration not stated)	> 100 µM	> 100 µM	> 100 µM	> 100 µM	> 100 µM	> 100 µM	> 100 µM	> 100 µM	> 100 µM	> 100 µM	> 100 µM	> 100 µM	> 100 µM	> 100 µM		> 100 µM
CN(C)N=Nc1ccc2[nH]c(=O)[nH]c2c1	> 100 µM	> 100 µM	> 100 µM	> 100 µM	> 100 µM	> 100 µM	> 100 µM	> 100 µM	> 100 µM	> 100 µM	> 100 µM	> 100 µM	> 100 µM	> 100 µM		> 100 µM
COC(=O)CNC(=O)CCC(C)[C@H]1CCC2C3C(C[C@H](OC(C)=O)[C@@]21C)[C@@]1(C)CCC2(C[C@H]1C[C@H]3OC(C)=O)OOC1(CCCCC1)OO2 (some centres not stated)	2.98 µM	21.7 µM	8.65 µM	6.7 µM	24.2 µM	4.7 µM	6.25 µM	17.8 µM	13.9 µM	5.3 µM	4.65 µM	4.23 µM	1.73 µM	3.36 µM	2.72 µM	3.36 µM
COc1ccc2oc(C(=O)N3CC(CCl)c4ccc(N)cc43)cc2c1 (configuration not stated)	0.782 µM	0.496 µM	3.18 µM	3.53 µM	7.12 µM	0.758 µM	0.576 µM	19.5 µM	3.02 µM	3.23 µM	14.1 µM	0.532 µM	> 100 µM	1.82 µM	18.7 µM	> 100 µM
COCOc1cc(OC)ccc1C/C(=N/O)C(=O)OC	> 100 µM	> 100 µM	> 100 µM	> 100 µM	> 100 µM	> 100 µM	> 100 µM	> 100 µM	> 100 µM	74.4 µM	> 100 µM	> 100 µM	> 100 µM	> 100 µM		> 100 µM
N#Cc1c(-c2ccc([N+](=O)[O-])cc2)cc(-c2ccc(Nc3ccnc4cc(Cl)ccc34)cc2)nc1N	15 µM	> 64.1 µM	18.6 µM	29.9 µM	43 µM	26.8 µM	14.7 µM	47.4 µM	4.73 µM	34.6 µM	> 95.2 µM	34.9 µM	29.7 µM	17.1 µM	48.7 µM	8.8 µM
COC(=O)[C@H](Cc1c[nH]c2ccccc12)NC(=O)c1ccccc1I	> 100 µM	34.1 µM	> 100 µM	29.8 µM	77.3 µM	> 100 µM	> 100 µM	> 100 µM	> 100 µM	32.4 µM	82.2 µM	39.8 µM	> 100 µM	42.6 µM	35.2 µM	> 100 µM
Nc1c2cc3ccc2nc2ccc(cc12)OCCOCCOCCOCCOCCOCCO3	> 10 µM	> 10 µM	> 10 µM	> 10 µM	> 10 µM	> 10 µM	> 10 µM	> 10 µM	> 10 µM	> 10 µM	> 10 µM	> 10 µM	> 10 µM	> 10 µM	> 10 µM	> 10 µM
Cc1ccc(SCC(OCn2cnc3c(Cl)nc(N)nc32)[C@H](C)F)cc1 (some centres not stated)	> 100 µM	> 100 µM	> 100 µM	> 100 µM	> 100 µM	> 100 µM	> 100 µM	> 100 µM	> 100 µM	> 100 µM	> 100 µM		> 100 µM	> 100 µM	> 100 µM	> 100 µM
COc1ccc2c(c1OC)C(=O)O[C@@H]2[C@H]1c2c(cc3c(c2OC)OCO3)CCN1C	> 100 µM	> 100 µM	> 100 µM	67.4 µM		> 100 µM	> 100 µM	> 100 µM	> 100 µM	34 µM	> 100 µM	> 100 µM	> 100 µM	> 100 µM	> 100 µM	> 100 µM
CCOC(=O)C1(C(=O)OCC)C=C(c2ccccc2)N(C2OC(COC(C)=O)C(OC(C)=O)C(OC(C)=O)C2OC(C)=O)C1=S (configuration not stated)	> 100 µM	> 100 µM	> 100 µM	> 100 µM		> 100 µM	> 100 µM	> 100 µM	> 100 µM		> 100 µM	> 100 µM	> 100 µM	> 100 µM	> 100 µM	> 100 µM
C[C@H]1O[C@@H](C(C)(C)C)OC(=O)[C@@H]1C(OC(=O)c1ccccc1)c1cccc2ccccc12 (some centres not stated)	> 100 µM	> 100 µM	> 100 µM	> 100 µM	> 100 µM	> 100 µM	> 100 µM	> 100 µM	> 100 µM	> 100 µM	> 100 µM	> 100 µM	> 100 µM	> 100 µM		> 100 µM
O=C(NC1(C(=O)O)CCCC1)c1ccccc1	> 100 µM	> 100 µM	> 100 µM	> 100 µM	> 100 µM	> 100 µM	> 100 µM	> 100 µM	> 100 µM		> 100 µM	> 100 µM	> 100 µM	> 100 µM	> 100 µM	> 100 µM
COc1cc(S(=O)(=O)Nc2ccc(-c3csc(N4C(=O)C(Cl)C4c4cccs4)n3)cc2)ccc1Cl (configuration not stated)	> 100 µM	> 100 µM	> 100 µM	> 100 µM		> 100 µM	> 100 µM	> 100 µM	> 100 µM	> 100 µM	> 100 µM	86.4 µM	> 100 µM	> 100 µM	45.5 µM	> 100 µM
C=CCN(CCN(CC=C)S(=O)(=O)c1ccc(C)cc1)S(=O)(=O)c1ccc(C)cc1			> 100 µM	> 100 µM	> 100 µM	> 100 µM	> 100 µM	> 100 µM	> 100 µM	> 100 µM	> 100 µM	> 100 µM		> 100 µM	> 100 µM	> 100 µM
